Values joined by “and” are separate entries in the source; they are usually repeats but may differ in a detail not shown here. Identical values can stand only once.
Columns and labels:
[1] = xn = mol fraction of the nth substance listed

C1COCOC1
101 kPa
Conditions	viscosity [mPa·s]
298.15 K	1.057
313.15 K	0.8452

C=COC(C)=O
Conditions	viscosity [mPa·s]
303.15 K, 101.33 kPa	0.372

CC(C)C(C)O (centres undefined)
101.33 kPa
Conditions	viscosity [mPa·s]
303.15 K	3.163
313.15 K	2.185
323.15 K	1.573

CC(C)c1ccccc1
viscosity
Conditions	293.15 K	298.15 K	303.15 K	308.15 K	313.15 K	318.15 K	323.15 K
100 kPa	–	0.772 mPa·s	–	0.692 mPa·s	–	0.623 mPa·s	–
101 kPa	0.779 mPa·s	0.7314 mPa·s and 0.731 mPa·s	0.68 mPa·s and 0.6881 mPa·s	0.6366 mPa·s and 0.636 mPa·s and 0.6488 mPa·s	0.608 mPa·s and 0.607 mPa·s and 0.6116 mPa·s	0.5767 mPa·s	0.5447 mPa·s

CCC(CC)CO
Conditions	viscosity
298.15 K, 101.33 kPa	5.819 mPa·s and 5.819 mPa·s

CCCCCCCC(=O)O
Conditions	viscosity [mPa·s]
298.15 K, 101 kPa	5.16

CCCCCCCCCCCCCCCCCCCC
Conditions	viscosity [mPa·s]
313.2 K, 101.3 kPa	4.01

CCCCOC(C)=O
viscosity
Conditions	293.15 K	298.15 K	308.15 K	313.15 K	318.15 K	323.15 K
100 kPa	0.73 mPa·s	0.683 mPa·s	–	0.55 mPa·s	0.51 mPa·s	0.465 mPa·s
101 kPa	0.724 mPa·s and 0.724 mPa·s	–	–	–	0.524 mPa·s and 0.5262 mPa·s	0.507 mPa·s
101.33 kPa	0.735 mPa·s	–	0.592 mPa·s and 0.593 mPa·s and 0.584 mPa·s	0.557 mPa·s and 0.565 mPa·s	0.524 mPa·s	–

CCCN
Conditions	viscosity
293.15 K, 101.3 kPa	0.359 mPa·s
298.15 K, 100 kPa	0.365 mPa·s
298.15 K, 101.3 kPa	0.342 mPa·s
298.15 K, 101.33 kPa	0.356 mPa·s
303.15 K, 101 kPa	0.3468 mPa·s and 0.3479 mPa·s
303.15 K, 101.33 kPa	0.3479 mPa·s and 0.3512 mPa·s
308.15 K, 101 kPa	0.2998 mPa·s
308.15 K, 101.33 kPa	0.328 mPa·s
313.15 K, 101.33 kPa	0.3123 mPa·s
318.15 K, 101.33 kPa	0.291 mPa·s

CCCN(CCC)C(C)=O
Conditions	viscosity [mPa·s]
298.16 K, 101 kPa	2.204

CCCOC(=O)c1ccccc1
viscosity [mPa·s]
Conditions	293.15 K	298.15 K	303.15 K	308.15 K	313.15 K	318.15 K	323.15 K
101 kPa	–	2.357	–	1.905	–	1.574	–
101.33 kPa	2.586	–	2.013	–	1.604	–	1.301

CN1CCCN(C)C1=O
viscosity [mPa·s]
Conditions	293.15 K	298.15 K	303.15 K	308.15 K	313.15 K	318.15 K	323.15 K
100 kPa	3.514	3.11	2.779	2.501	2.266	2.064	1.891
101 kPa	–	2.95	–	–	–	–	–

C[n+]1ccn(CCO)c1.O=C([O-])C(F)(F)C(F)(F)C(F)(F)C(F)(F)F
101 kPa
Conditions	viscosity [mPa·s]
298.15 K	712.8
308.15 K	351.3
318.15 K	190.8

Clc1ccccc1Cl
viscosity
Conditions	298.15 K	303.15 K	308.15 K	313.15 K	318.15 K
100 kPa	–	1.238 mPa·s	1.146 mPa·s	1.054 mPa·s	0.974 mPa·s
101 kPa	1.22 mPa·s	1.129 mPa·s and 1.22 mPa·s	1.058 mPa·s and 1.148 mPa·s	0.9857 mPa·s and 1.054 mPa·s	0.974 mPa·s

N#CCCl
101 kPa
Conditions	viscosity [mPa·s]
293.15 K	0.938
298.15 K	0.863
303.15 K	0.798
313.15 K	0.714
323.15 K	0.616

OCCc1ccccc1
viscosity
Conditions	298.15 K	303.15 K	308.15 K	313.15 K
100 kPa	–	9.05 mPa·s and 9.027 mPa·s	7.653 mPa·s	6.335 mPa·s
101 kPa	10.9 mPa·s	–	–	–

Oc1ccccc1Cl
Conditions	viscosity
293.15 K, 101 kPa	4.21 mPa·s
298 K, 101 kPa	3.376 mPa·s
298 K, 101.3 kPa	3.376 mPa·s
298 K, 101.33 kPa	3.36 mPa·s
298.15 K, 101 kPa	3.671 mPa·s and 3.381 mPa·s
303 K, 101 kPa	2.927 mPa·s
303 K, 101.3 kPa	2.927 mPa·s
303.15 K, 101 kPa	3.08 mPa·s and 2.821 mPa·s and 2.998 mPa·s
308 K, 101 kPa	2.532 mPa·s
308 K, 101.3 kPa	2.532 mPa·s
308.15 K, 101 kPa	2.491 mPa·s and 2.358 mPa·s
313 K, 101 kPa	2.191 mPa·s
313 K, 101.3 kPa	2.191 mPa·s
313.15 K, 101 kPa	2.32 mPa·s and 2.32 mPa·s and 2.259 mPa·s
318 K, 101 kPa	1.947 mPa·s
318 K, 101.3 kPa	1.947 mPa·s
318.15 K, 101 kPa	2.038 mPa·s
323.1 K, 101 kPa	2.015 mPa·s
323.15 K, 101 kPa	1.871 mPa·s

CCCCC[NH3+].O=[N+]([O-])[O-] + O
[1], 298 K, 101 kPa
Conditions	viscosity [mPa·s]
x2 = 0.2	69.13
x2 = 0.299	47.41
x2 = 0.399	30.46
x2 = 0.499	20.51
x2 = 0.6	14.23
x2 = 0.702	9.1
x2 = 0.799	5.47
x2 = 0.9	2.71
x2 = 0.95	1.67

CCCCOC(C)=O + O
[1], 303.15 K, 101 kPa
Conditions	viscosity [mPa·s]
x2 = 0.0201	0.64
x2 = 0.04	0.641
x2 = 0.0599	0.639

CCCN(CCC)C(C)=O + O
[1], 298.16 K, 101 kPa
Conditions	viscosity [mPa·s]
x2 = 0.0688	2.38
x2 = 0.1822	2.71
x2 = 0.3049	3.12
x2 = 0.4342	3.66
x2 = 0.5515	4.26
x2 = 0.6896	4.87
x2 = 0.74	4.95
x2 = 0.762	4.95
x2 = 0.7891	4.88
x2 = 0.8742	3.94
x2 = 0.9163	2.96

NC(=O)C[C@H](N)C(=O)O + O
viscosity, [1], 101 kPa
Conditions	x1 = 0.00045	x1 = 0.0009	x1 = 0.001	x1 = 0.00135	x1 = 0.001798	x1 = 0.002247	x1 = 0.002695	x1 = 0.003
293.15 K	1.01 mPa·s	1.018 mPa·s	1.015 mPa·s	1.025 mPa·s	1.033 mPa·s	1.041 mPa·s	1.049 mPa·s	1.033 mPa·s
298.15 K	0.8972 mPa·s	0.9037 mPa·s	0.9105 mPa·s	0.9104 mPa·s	0.917 mPa·s	0.9236 mPa·s	0.9301 mPa·s	0.9306 mPa·s
303.15 K	0.8033 mPa·s	0.8089 mPa·s	0.8147 mPa·s	0.8146 mPa·s	0.8202 mPa·s	0.8258 mPa·s	0.8314 mPa·s	0.8318 mPa·s and 0.8318 mPa·s
308.15 K	0.7243 mPa·s	0.7292 mPa·s	0.734 mPa·s and 0.734 mPa·s	0.734 mPa·s	0.7388 mPa·s	0.7436 mPa·s	0.7484 mPa·s	0.7488 mPa·s
313.15 K	0.6573 mPa·s	0.6615 mPa·s	0.6657 mPa·s	0.6657 mPa·s	0.6699 mPa·s	0.674 mPa·s	0.6782 mPa·s	0.6785 mPa·s
318.15 K	0.6013 mPa·s	0.605 mPa·s	0.6087 mPa·s	0.6087 mPa·s	0.6123 mPa·s	0.6159 mPa·s	0.6195 mPa·s	0.6198 mPa·s

Nc1ncnc2[nH]cnc12 + O
viscosity [mPa·s], [1], 101.3 kPa
Conditions	293.15 K	298.15 K	303.15 K	308.15 K	313.15 K	318.15 K
x1 = 9.33e-05	1.006	0.895	0.803	0.738	0.623	0.595
x1 = 0.0001925	1.009	0.898	0.806	0.741	0.626	0.598
x1 = 0.0002792	1.011	0.9	0.808	0.743	0.628	0.6
x1 = 0.0003724	1.013	0.902	0.81	0.745	0.63	0.602
x1 = 0.0004489	1.015	0.904	0.812	0.747	0.632	0.604
x1 = 0.0005443	1.017	0.906	0.814	0.749	0.634	0.606
